Measurements taken from patent US5424312A, “Aminoalkyl-substituted 2-amino-1,3,4-thiadiazoles, the preparation and use thereof” (BASF Aktiengesellschaft, priority 1991, dated 1995).
pKi: −log10 of the molar value. Structures can show the parent of a compound that is named as a salt. Where two headings read alike, the source gives them in different places.

Target: T1, dopamine D2 receptor (Rattus norvegicus, UniProt P61169)
T1 construct: Striata from rats (Sprague Dawley, Charles River) were homogenized immediately after removal; from tissue; host or cells: rat striatum (Sprague Dawley, Charles River), membranes
Experiment: Receptor binding assay with 3H-ADTN on rat striatal membranes: affinity for the dopamine D2 receptor
Set-up: species or system rat (Sprague Dawley)
Experimental: The effects of the novel compounds can be shown in the receptor binding assay as follows:
Striata from rats (Sprague Dawley, Charles River) were homogenized immediately after removal in 0.32M sucrose solution (0° C.). The homogenate was filtered through gauze, the filtrate was centrifuged at 1000×g (5 min at 4° C.) and the resulting supernatant was centrifuged at 40000×g (4C 10 min) The residue (membranes) was taken up in incubation buffer (50 mM tris-HCl, 1 mM MgCl2 and 0.1% ascorbic acid, pH 7.4) and incubated at 37° C. for 20 min. The residue was subsequently washed 2× with incubation buffer by resuspension and recentrifugation. The membranes were frozen in portions in liquid nitrogen.
The assay mixtures (1 ml) were composed of membranes (380 μg of protein), 1 nM ^3 H-ADTN (NEN, Dreieich Germany, specific radioactivity 1.4 TBq/mmol) and 0.1 μM SCH 23390 (total binding) or a) with the addition of 50 nM spiperone (non-specific binding) or b) with test substance. The mixtures were prepared in triplicate.
After the incubation (40 min at 25° C.) the mixtures were filtered through glass fiber filters (Whatman GF/B) and briefly washed with ice-cold washing buffer (tris-HCl, pH 7.4). The radioactivity retained on the filters was determined by liquid scintillation counting. The non-specific binding comprised about 40-50% of the total binding.
The evaluation of the competition plots and the determination of the dissociation constant took place by iterative non-linear regression analysis based on the "ligand" program (Muson and Rodbard: Anal. Biochem. 107 (1980) 220).
Affinity of the test substances for the dopamine D2 receptor

[1] = rat striatum membranes, 1 nM 3H-ADTN, 0.1 μM SCH 23390, non-specific binding with 50 nM spiperone, 40 min at 25° C., read-out: Affinity of the test substances for the dopamine D2 receptor, Ki

T1 sequence (P61169 whole entry): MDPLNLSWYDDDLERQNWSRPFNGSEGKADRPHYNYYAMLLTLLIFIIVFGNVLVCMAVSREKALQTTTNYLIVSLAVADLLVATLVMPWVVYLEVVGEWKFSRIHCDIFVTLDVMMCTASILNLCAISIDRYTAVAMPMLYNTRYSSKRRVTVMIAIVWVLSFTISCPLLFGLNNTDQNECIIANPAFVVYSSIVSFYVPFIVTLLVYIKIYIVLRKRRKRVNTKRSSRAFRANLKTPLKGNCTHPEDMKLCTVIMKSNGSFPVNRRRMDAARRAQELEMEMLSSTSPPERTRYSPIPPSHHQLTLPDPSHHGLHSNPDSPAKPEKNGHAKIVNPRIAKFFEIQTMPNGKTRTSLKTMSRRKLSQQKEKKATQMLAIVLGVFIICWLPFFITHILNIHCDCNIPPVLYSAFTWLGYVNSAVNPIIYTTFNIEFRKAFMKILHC

| SMILES | pKi [1] | pKi |
| --- | --- | --- |
| Nc1nnc(CCN2CC=C(c3ccccc3)CC2)s1 [Example 4, 2-Amino-5-[2-(1,2,3,6-tetrahydro-4-phenylpyridyl)-ethyl]-1,3,4-thiadiazolehydrochloride] | 7.52 |  |
| Nc1nnc(CCN2CC=C(c3ccc(Cl)cc3)CC2)s1 [Example 7, 2-Amino-5-[2-(4-(4-chlorophenyl)-l,2,3,6-tetrahydropyridyl)ethyl]-1,3,4-thiadiazole dihydrochloride] | 7.52 |  |
| Nc1nnc(CCCN2CC=C(c3ccccc3)CC2)s1 [Example 10, 2-Amino-5-[3-(1,2,3,6-tetrahydro-4-phenylpyridyl)propyl]-1,3,4-thiadiazolehydrochloride] | 7.49 |  |
| Nc1nnc(CCCCN2CC=C(c3ccccc3)CC2)s1 [Example 18, 2-Amino-5-[4-(1,2,3,6-tetrahydro-4-phenylpyridinyl)-butyl]-1,3,4-thiadiazole] |  | 8.30 |
| Nc1nnc(CCCCCN2CC=C(c3ccccc3)CC2)s1 [Example 19, fumarate] |  | 8.00 |
| Nc1nnc(CCCCN2CCN(c3ccccn3)CC2)s1 [Example 21, 2-Amino-5-[4-(4-pyridin-2-ylpiperazinyl)butyl]-1,3,4-thiadiazole] | 7.36 |  |
| Nc1nnc(CCN2CCC(c3ccccc3)CC2)s1 [Example 24, 2-Amino-5-[2-(4-phenylpiperidinyl)ethyl]-1,3,4-thiadiazole] | 7.43 |  |
